For experiment [1], the target named is T1, E. coli IleRS (Escherichia coli, UniProt P00956).
T1 construct: gene ileS; purified recombinant E. coli IleRS
The experiment is described as follows: radiolabel aminoacyl transfer assay ([…]-Ile to tRNA, TCA precipitation). The experiment is classed as biochemical.

The target in experiment [2] is T1, E. coli IleRS. The description is as above. The following applies: 10 nM IleRS, 50 µM 14C-isoleucine, 2 mg/mL tRNA, 500 µM ATP, 10 mM MgCl2, pH 7.5, 37 °C, 10 min preincubation; dose-response curve not determined. Type of experiment: biochemical.

Usually IC50 stands for the concentration needed to halve the response being measured. A high value points to weaker potency in that assay.

T1 sequence (P00956 2-938): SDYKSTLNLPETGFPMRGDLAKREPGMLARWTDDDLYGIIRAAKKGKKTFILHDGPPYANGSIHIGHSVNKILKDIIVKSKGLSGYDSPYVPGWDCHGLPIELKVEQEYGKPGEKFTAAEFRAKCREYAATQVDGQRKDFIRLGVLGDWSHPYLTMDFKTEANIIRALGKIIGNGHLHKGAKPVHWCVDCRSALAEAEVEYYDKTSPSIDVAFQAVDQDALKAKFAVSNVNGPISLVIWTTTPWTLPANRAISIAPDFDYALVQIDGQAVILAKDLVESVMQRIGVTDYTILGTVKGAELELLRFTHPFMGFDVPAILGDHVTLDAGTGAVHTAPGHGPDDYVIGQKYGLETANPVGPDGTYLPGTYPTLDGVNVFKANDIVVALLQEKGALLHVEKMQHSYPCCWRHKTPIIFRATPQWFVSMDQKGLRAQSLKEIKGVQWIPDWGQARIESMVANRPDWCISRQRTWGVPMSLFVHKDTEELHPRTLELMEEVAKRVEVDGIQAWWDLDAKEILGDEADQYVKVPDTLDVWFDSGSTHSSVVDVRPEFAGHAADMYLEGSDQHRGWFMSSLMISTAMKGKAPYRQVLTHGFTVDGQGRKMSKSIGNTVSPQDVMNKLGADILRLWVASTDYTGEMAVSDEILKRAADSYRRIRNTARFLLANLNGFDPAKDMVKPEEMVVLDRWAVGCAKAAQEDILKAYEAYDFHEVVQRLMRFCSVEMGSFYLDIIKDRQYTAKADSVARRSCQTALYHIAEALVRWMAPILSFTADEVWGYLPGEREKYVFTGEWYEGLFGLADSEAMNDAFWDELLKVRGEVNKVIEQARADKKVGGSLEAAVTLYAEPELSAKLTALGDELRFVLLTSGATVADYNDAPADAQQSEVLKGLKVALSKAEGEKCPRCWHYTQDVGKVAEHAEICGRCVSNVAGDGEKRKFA

On to `CC[C@H](C)[C@H](N)C(=O)NS(=O)(=O)OC[C@H]1O[C@@H](n2cnc3c(NC)ncnc32)[C@H](O)[C@@H]1O` [6a, 5′-O-(N-L-isoleucyl)-sulfamoyl-N^6-methyl-adenosine], for which, at E. coli IleRS [1], inhibition was half-maximal at 13.9 ± 1 nM (IC50).
Same read-out and setting: then `CCCCCCCCNc1ncnc2c1ncn2[C@@H]1O[C@H](COS(=O)(=O)NC(=O)[C@@H](N)[C@@H](C)CC)[C@@H](O)[C@H]1O` [6b, 5′-O-(N-L-isoleucyl)-sulfamoyl-N^6-octyl-adenosine], with 42.8 ± 1 nM.
Regarding `CCCCCCCCCCCCNc1ncnc2c1ncn2[C@@H]1O[C@H](COS(=O)(=O)NC(=O)[C@@H](N)[C@@H](C)CC)[C@@H](O)[C@H]1O` [6c, 5′-O-(N-L-isoleucyl)-sulfamoyl-N^6-dodecyl-adenosine], the relative activity result at E. coli IleRS [2] is “the dodecyl derivative 6c was active in submicromolar range”.
The same measure, in the same setting: for `CCCCCCCCCCCCCCCCCCNc1ncnc2c1ncn2[C@@H]1O[C@H](COS(=O)(=O)NC(=O)[C@@H](N)[C@@H](C)CC)[C@@H](O)[C@H]1O` [6d, 5′-O-(N-L-isoleucyl)-sulfamoyl-N^6-octadecyl-adenosine] the value was “the octadecyl compound 6d was found to be active only in the micromolar range”.
With `CC[C@H](C)[C@H](N)C(=O)NS(=O)(=O)OC[C@H]1O[C@@H](n2cnc3c(Nc4ccccc4)ncnc32)[C@H](O)[C@@H]1O` [6e, 5′-O-(N-L-isoleucyl)-sulfamoyl-N^6-phenyl-adenosine], at E. coli IleRS [1], it took 10.5 ± 1 nM to reach half-maximal inhibition (IC50).
Still for that read-out and setting: for `CC[C@H](C)[C@H](N)C(=O)NS(=O)(=O)OC[C@H]1O[C@@H](n2cnc3c(OC)ncnc32)[C@H](O)[C@@H]1O` [6f, 5′-O-(N-L-isoleucyl)-sulfamoyl-6-O-methyl-purine riboside] the value was 4.9 ± 1.1 nM.

The values are drawn from publication PMC6963541, “Synthesis and Biological Evaluation of Lipophilic Nucleoside Analogues as Inhibitors of Aminoacyl-tRNA Synthetases” (Antibiotics, 2019).
